How the values were obtained:
atherosclerotic lesions = experiment: Example 2: area of aortic atherosclerotic lesions in guinea pig groups; format: in vivo
Excerpt: At necropsy the animals were anesthetized with metophase and exsanguinated. The aorta, heart and various other organs were taken for biochemical and histological analysis. The aorta was excised, the adventitial fat carefully removed, and the vessel was opened longitudinally. Subsequently the aorta was placed on a dark metric paper and a color slide was taken. The picture was projected and thereby magnified by an approximate factor of 10. The circumference of the ascending aorta, the aortic arch and thoracic aorta, as well as the atherosclerotic lesions in this area, were marked and measured with a digitalized planimetry system. The degree of atherosclerosis was expressed by the ratio of plaque area in relation to the total aortic area defined.
To confirm the data obtained in Example 1, a second guinea pig experiment was conducted, using 33 male animals with a mean weight of 550 g and an approximate age of 5 months. One group of 8 animals served as a control and received 40 mg ascorbate/kg BW/d (group A). To induce hypoascorbemia 16 animals were fed 2 mg ascorbate/kg BW/d (group B). Group A and half of the animals of group B (progression sub-group) were sacrificed after 5 weeks as described above. […]

in vivo = format: in vivo, guinea pig
Description: Blood was drawn by ear puncture from the anesthetized animals and collected into EDTA containing tubes at the beginning, after 10 days, and after 3 weeks, when the animals were sacrificed. Plasma was stored at -80°C until analyzed. Lp(a) was detected in the plasma of the guinea pigs by use of SDS-polyacrylamide gels according to Neville ((1971) J. Biol. Chem. 246:6328-6334) followed by Western blotting according to Beisiegel, et al. ((1982) J. Biol. Chem. 257:13150-13156). Forty »l of plasma and 20 mg of arterial wall homogenate were applied in delipidated form per lane of the gel. The immunodetection of apo(a) was performed using a polyclonal anti-human apo(a) antibody (Immuno, Vienna, Austria) followed by a rabbit anti-sheep antibody (Sigma) and the gold-conjugated goat anti-rabbit antibody with subsequent silver enhancement (Bio-Rad). The determinations of cholesterol and triglycerides were done at California Veterinary Diagnostics (Sacramento) using the enzyme assay of Boehringer Mannheim. The amount of plasma ascorbate was determined by the dinitrophenylhydrazine method according to Schaffer, et al. ((1955) J. Biol. Chem. 212:59).
To confirm the data obtained in Example 1, a second guinea pig experiment was conducted, using 33 male animals with a mean weight of 550 g and an approximate age of 5 months. One group of 8 animals served as a control and received 40 mg ascorbate/kg BW/d (group A). To induce hypoascorbemia 16 animals were fed 2 mg ascorbate/kg BW/d (group B). Group A and half of the animals of group B (progression sub-group) were sacrificed after 5 weeks as described above. Half of group B was kept for 2 more weeks, receiving daily intraperitoneal injection of 1.3 g Na-ascorbate/kg BW/d as a daily intra peritoneal injection with the intention to reduce the extent of atherosclerosis lesions. After this regression period these animals also were sacrificed.

[1] = Regression (after Scurvy): 2 more weeks with daily intraperitoneal 1.3 g Na-ascorbate/kg BW/d
[2] = Scurvy (progress), group B: 2 mg ascorbate/kg BW/d, 5 weeks

| concentration at 336 h (in vivo; guinea pig, in vivo, ip, 1300 mg/kg/day) [ng/mL] | concentration at 840 h (in vivo; guinea pig, in vivo, 2 mg/kg/day) [ng/mL] | concentration at 840 h (in vivo; guinea pig, in vivo, 40 mg/kg/day) [ng/mL] | Compound | Atheroscl. Lesion (Percent of Aorta Thorac. Surface) (atherosclerotic lesions; [1]) | Plasma Cholesterol (in vivo; [1]) [mg/dL] | Atheroscl. Lesion (Percent of Aorta Thorac. Surface) (atherosclerotic lesions; [2]) | Plasma Cholesterol (in vivo; Control, group A: 40 mg ascorbate/kg BW/d, 5 weeks) [mg/dL] | Plasma Cholesterol (in vivo; [2]) [mg/dL] |
| --- | --- | --- | --- | --- | --- | --- | --- | --- |
| 20600 | – | – | O=C1O[C@H]([C@@H](O)CO)C(O)=C1O [Na-ascorbate] | 19% of Aorta Thorac. Surface | 33 | – | – | – |
| – | 3010 | 5030 | O=C1O[C@H]([C@@H](O)CO)C(O)=C1O [ascorbate] | – | – | 25% of Aorta Thorac. Surface | 39 | 54 |
